Experimental findings from patent US11505558B1, “Antiviral heterocyclic compounds” (Enanta Pharmaceuticals, Inc., priority 2019, dated 2022) are described below.

The structures appear in SMILES notation. A value given as a limit tells only on which side of the number the result lay.

The first test deals with genotype A, "Long" strain RSV. The test is described as follows: RSV-A assay (CPE, ATPlite readout in Hep-2 cells). In kind it is cell-based. The conditions noted are these: human respiratory syncytial virus, HEp-2, Hep-2 cells, genotype A "Long" strain RSV, MOI 0.1; read-out: Human RSV-A (“Long” strain) EC50. The method in brief:
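Hep-2 cells (8,000/well) received 2-fold serial compound dilutions in duplicate and RSV Long strain at MOI 0.1. After 5 days' incubation, cell health was read as ATP by ATPlite luminescence, with virus-only and uninfected controls defining max and minimum CPE; EC50 reported.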
Background: Cellular ATP, detected with luciferase, serves as a proxy for viable cell number.
On to `COc1cc(C(=O)NCC(O)(c2cc3c(c(-c4ccc(F)cc4)n2)OC[C@]3(C)C(=O)NC2CC2)C(F)(F)F)cc2cccnc12` (stereo partly shown) [Example 27], for which the EC50 was under 200 nM.

Regarding `COc1nccc(C(=O)NC[C@](O)(c2cc3c(c(-c4ccc(F)cc4)n2)OC[C@]3(C)CNCC2CC2)C(F)(F)F)n1` [Example 34], the EC50 is over 200 nM.

On to `C[C@]1(C(N)=O)COc2c1cc([C@@](O)(CNC(=O)c1ccc3c(c1)OCC(=O)N3)C(F)(F)F)nc2-c1ccc(F)cc1` [Example 606], for which the EC50 was over 200 nM.

In the case of `C[C@]1(C(N)=O)COc2c1cc([C@@](O)(CNC(=O)c1ccc3c(c1)NCCO3)C(F)(F)F)nc2-c1ccc(F)cc1` [Example 607], the EC50 is under 200 nM.

For `COc1cc(C(=O)NC[C@](O)(c2cc3c(c(-c4ccc(F)cc4)n2)OC[C@]3(C)C(N)=O)C(F)(F)F)cc2cc3c(nc12)CCCC3` [Example 612], the EC50 was under 200 nM.

`C[C@]1(C(N)=O)COc2c1cc([C@@](O)(CNC(=O)c1cc(Oc3ncccn3)c3ncccc3c1)C(F)(F)F)nc2-c1ccc(F)cc1` [Example 614]: the EC50 is over 200 nM.

Take `COc1cc(C(=O)NC[C@](O)(c2cc3c(c(-c4ccc(F)cc4)n2)OC[C@]3(C)C(N)=O)C(F)(F)F)cc2cc(Br)cnc12` [Example 618]: the EC50 is under 200 nM.

Consider `Cc1cnc2c(NC(=O)C3(C)COC3)cc(C(=O)NC[C@](O)(c3cc4c(c(-c5ccc(F)cc5)n3)OC[C@]4(C)C(N)=O)C(F)(F)F)cc2c1` [Example 620], for which the EC50 was under 200 nM.

As for `Cc1cnc2c(NC(=O)Nc3cccnc3)cc(C(=O)NC[C@](O)(c3cc4c(c(-c5ccc(F)cc5)n3)OC[C@]4(C)C(N)=O)C(F)(F)F)cc2c1` [Example 625], the 50% effective concentration (EC50) is under 200 nM.

Consider `Cc1ccc2cc(C(=O)NC[C@](O)(c3cc4c(c(-c5ccc(F)cc5)n3)OC[C@]4(C)C(N)=O)C(F)(F)F)cc(NC(=O)NC3CC3)c2n1` [Example 628], for which the EC50 is over 200 nM.

Regarding `Cc1cnc2c(OCC(F)F)cc(C(=O)NC[C@](O)(c3cc4c(c(-c5ccc(F)cc5)n3)OC[C@]4(C)C(N)=O)C(F)(F)F)cc2c1` [Example 629], the EC50 is under 200 nM.

On to `Cc1cnc2c(NC(=O)c3ncc(C)o3)cc(C(=O)NC[C@](O)(c3cc4c(c(-c5ccc(F)cc5)n3)OC[C@]4(C)C(N)=O)C(F)(F)F)cc2c1` [Example 630], for which the EC50 was under 200 nM.

For the compound `Cc1cnc2c(NC(=O)NNC3CC3)cc(C(=O)NC[C@](O)(c3cc4c(c(-c5ccc(F)cc5)n3)OC[C@]4(C)C(N)=O)C(F)(F)F)cc2c1` [Example 631], the EC50 was under 200 nM.

Regarding `Cc1cnc2c(NC(=O)NNCC(C)(C)O)cc(C(=O)NC[C@](O)(c3cc4c(c(-c5ccc(F)cc5)n3)OC[C@]4(C)C(N)=O)C(F)(F)F)cc2c1` [Example 632], the EC50 was under 200 nM.

As to `Cn1cc2cc(C(=O)NC[C@](O)(c3cc4c(c(-c5ccc(F)cc5)n3)OC[C@]4(C)C(N)=O)C(F)(F)F)ccc2n1` [Example 637], the EC50 was under 200 nM.

As for `Cn1cc2cc(C(=O)NC[C@](O)(c3cc4c(c(-c5ccc(F)c(Cl)c5)n3)OC[C@]4(C)C(N)=O)C(F)(F)F)ccc2n1` [Example 639], the EC50 is under 200 nM.

As to `CN1Cc2cc(C(=O)NC[C@](O)(c3cc4c(c(-c5ccc(F)cc5)n3)OC[C@]4(C)C(=O)NCC(C)(C)O)C(F)(F)F)ccc2C1=O` [Example 643], the concentration for a half-maximal effect (EC50) was under 200 nM.

On to `CN1Cc2cc(C(=O)NC[C@](O)(c3cc4c(c(-c5ccc(F)cc5)n3)OC[C@]4(C)C(N)=O)C(F)(F)F)ccc2C1=O` [Example 644], for which the EC50 was under 200 nM.

`CN1Cc2cc(C(=O)NC[C@](O)(c3cc4c(c(-c5ccc(F)c(Cl)c5)n3)OC[C@]4(C)C(N)=O)C3CC3)ccc2C1=O` [Example 645]: the EC50 was under 200 nM.

`CN1Cc2cc(C(=O)NC[C@](O)(c3cc4c(c(-c5ccc(F)c(Cl)c5)n3)OC[C@]4(C)C(N)=O)C(F)(F)F)ccc2C1=O` [Example 646]: the 50% effective concentration (EC50) is under 200 nM.

As for `COc1cc(C(=O)NC[C@](O)(c2cc3c(c(-c4ccc(F)cc4)n2)OC[C@]3(C)C(N)=O)C(F)(F)F)ccc1OCC(C)(C)O` [Example 647], the EC50 is under 200 nM.

For `Cc1cnc2c(S(C)(=O)=O)cc(C(=O)NC[C@](O)(c3cc4c(c(-c5ccc(F)cc5)n3)OC[C@]4(C)C(N)=O)C(F)(F)F)cc2c1` [Example 648], the EC50 was under 200 nM.

For the compound `COc1cc(C(=O)NC[C@](O)(c2cc3c(c(-c4ccc(F)cc4)n2)OC[C@]3(C)C(N)=O)C(F)(F)F)cc2cc(S(C)(=O)=O)cnc12` [Example 649], the EC50 was over 200 nM.

Consider `COc1cc(C(=O)NC[C@](O)(c2cc3c(c(-c4ccc(F)cc4)n2)NC[C@]3(C)CO)C(F)(F)F)ccc1OCCO` [Example 650], for which the concentration for a half-maximal effect (EC50) was under 200 nM.

Consider `C[C@]1(C(N)=O)COc2c1cc([C@@](O)(CNC(=O)c1ccc3ncc(C(F)(F)F)cc3c1)C(F)(F)F)nc2-c1ccc(F)cc1` [Example 651], for which the EC50 was under 200 nM.

As to `Cc1ccc2cc(C(=O)NC[C@](O)(c3cc4c(c(-c5ccc(F)cc5)n3)OC[C@]4(C)C(N)=O)C(F)(F)F)cc(N3CCCC3=O)c2n1` [Example 652], the concentration for a half-maximal effect (EC50) is over 200 nM.

For `Cc1ccc2cc(C(=O)NC[C@](O)(c3cc4c(c(-c5ccc(F)c(Cl)c5)n3)OC[C@]4(C)C(N)=O)C(F)(F)F)cc(N3CCCC3=O)c2n1` [Example 653], the EC50 is over 200 nM.

For the compound `Cn1cc2cc(C(=O)NC[C@](O)(c3cc4c(c(-c5ccc(F)cc5)n3)OC[C@]4(C)C(N)=O)C(F)(F)F)cc(F)c2n1` [Example 654], the concentration for a half-maximal effect (EC50) was under 200 nM.

`CCn1cc2cc(C(=O)NC[C@](O)(c3cc4c(c(-c5ccc(F)cc5)n3)OC[C@]4(C)C(N)=O)C(F)(F)F)ccc2n1` [Example 655]: the EC50 was under 200 nM.

Regarding `Cc1n[nH]c2ccc(C(=O)NC[C@](O)(c3cc4c(c(-c5ccc(F)cc5)n3)OC[C@]4(C)C(N)=O)C(F)(F)F)cc12` [Example 658], the concentration for a half-maximal effect (EC50) is under 200 nM.

Take `Cc1cnc2c(N3CCNC3=O)cc(C(=O)NC[C@](O)(c3cc4c(c(-c5ccc(F)cc5)n3)OC[C@]4(C)C(N)=O)C(F)(F)F)cc2c1` [Example 659]: the EC50 was under 200 nM.

As to `Cc1cc2cc(C(=O)NC[C@](O)(c3cc4c(c(-c5ccc(F)cc5)n3)OC[C@]4(C)C(N)=O)C(F)(F)F)cc(NC(=O)NC3COC3)c2nc1C` [Example 660], the EC50 is under 200 nM.

For `Cc1cc2cc(C(=O)NC[C@](O)(c3cc4c(c(-c5ccc(F)cc5)n3)OC[C@]4(C)C(N)=O)C(F)(F)F)cc(NC(=O)NCC(C)(C)O)c2nc1C` [Example 661], the concentration giving a half-maximal response (EC50) was under 200 nM.

With `Cc1cc2cc(C(=O)NC[C@](O)(c3cc4c(c(-c5ccc(F)cc5)n3)OC[C@]4(C)C(N)=O)C(F)(F)F)cc(NC(=O)C3(F)CC3)c2nc1C` [Example 662], the EC50 was under 200 nM.

As for `NC(=O)C1(F)COc2c1cc([C@@](O)(CNC(=O)c1cc(OC3CC3)c3ncccc3c1)C(F)(F)F)nc2-c1ccc(F)cc1` (stereo partly shown) [Example 665], the EC50 is over 200 nM.

As for `COc1cc(C(=O)NC[C@](O)(c2cc3c(c(-c4ccc(F)cc4)n2)OC[C@]3(F)C(N)=O)C(F)(F)F)ccc1OC1CC1` [Example 666], the concentration for a half-maximal effect (EC50) is under 200 nM.

Take `COc1cc(C(=O)NC[C@](O)(c2cc3c(c(-c4ccc(F)cc4)n2)OC[C@@]3(F)C(N)=O)C(F)(F)F)ccc1OC1CC1` [Example 667]: the half-maximal effective concentration (EC50) is over 200 nM.

Consider `COc1cc(C(=O)NC[C@](O)(c2cc3c(c(-c4ccc(F)cc4)n2)OCC3(F)C(N)=O)C(F)(F)F)cc2cc(C(F)(F)F)cnc12` (stereo partly shown) [Example 671], for which the concentration giving a half-maximal response (EC50) is under 200 nM.

As to `COc1cc(C(=O)NC[C@](O)(c2cc3c(c(-c4ccc(F)cc4)n2)OCC3(F)C(N)=O)C(F)(F)F)cn2cc(C3CC3)nc12` (stereo partly shown) [Example 672], the EC50 was under 200 nM.

Regarding `C[C@@H](O)COc1ccc(C(=O)NC[C@](O)(c2cc3c(c(-c4ccc(F)cc4)n2)OC[C@]3(F)C(N)=O)C(F)(F)F)cc1OC1CC1` [Example 674], the half-maximal effective concentration (EC50) was over 200 nM.

Another test has as its system recombinant HMPV CAN97-83 (MPV-GFP1). The test is described as follows: HMPV antiviral assay (MPV-GFP1 eGFP fluorescence in Vero E6 cells). In kind it is cell-based. The following applies: human metapneumovirus, Vero C1008, 120 h, read-out: HMPV EC50. How it is done: HMPV antiviral activity was evaluated using a recombinant version of HMPV CAN97-83 engineered to contain the coding sequence for enhanced green fluorescence protein (eGFP) in the 3′ end of the virus genome (MPV-GFP1, ViraTree). Vero E6 cells ([…]) were seeded at a density of 12,000 cells/100 μL/well into 96-well cell plates one day prior to the assay. On the day of screening, the cell culture medium was aspirated from the wells and cells were washed twice with serum-free Eagle's Modified Essential Medium (EMEM, ATCC #) containing 1% penicillin-streptomycin (Invitrogen) (SF-EMEM). Cell washes were performed by dispensing 100 μL SF-EMEM per well and immediately aspirating the wash medium from the well. Following the second wash step, serum-free OptiMEM (Invitrogen, Cat No.) (SF-OptiMEM) containing 0.5 μg/mL TPCK-Trypsin (VENDOR) and 1% penicillin-streptomycin was added to the cells at 50 μL/well. Compounds were added into the 96-well plates using a JANUS automated liquid handling system (VENDOR). Compounds were initially diluted 1:50 into an intermediate 96-well plate containing SF-OptiMEM prior to transfer to the assay plate (25 μL/well). Each of the test compounds were tested in duplicate wells at final concentrations starting from 8 μM or 2 μM using ½ stepwise dilutions for a total of 8 points. Virus infection was performed by preparing a working stock of MPV-GFP1 at a multiplicity of infection (MOI) equal to 0.05/25 μL and aliquoting 25 μL of virus inoculum to the compound and positive control wells. SF-OptiMEM was added (25 μL/well) to the appropriate wells to serve as a virus-free negative control for the assay. The final DMSO concentration of all wells is 0.5%. Plates were incubated at 32° C., 5% CO2 for 5 days.
After 5 days incubation, eGFP fluorescence intensity was measured at […] using a Spectramax i3X plate reader (VENDOR). Percent viral inhibition was calculated using the following equation: y=[[…]−(XQ/XP)]×100 Where XQ is the fluorescence intensity measured in a well containing recombinant MPV-GFP1-infected, compound-treated cells and XP is the average fluorescence intensity measured in the wells containing untreated cells infected with recombinant virus. EC50 values were then calculated by non-linear regression using a four parameter curve logistic equation. The curve fit model employed was XLFit Dose Response One Site Model 200: y=(A+(B/(1+((x/C)^D)))) Where A is the minimum y value, B is the maximum y value, C is the log EC50 value, and D is the slope factor. […] EC50 ranges are as follows: A<0.5 μM; B>0.5 μM.
Consider `COc1cc(C(=O)NCC(O)(c2cc3c(c(-c4ccc(F)cc4)n2)OC[C@]3(C)C(=O)NC2CC2)C(F)(F)F)cc2cccnc12` (stereo partly shown) [Example 27], for which the concentration giving a half-maximal response (EC50) was under 500 nM.

For `COc1nccc(C(=O)NC[C@](O)(c2cc3c(c(-c4ccc(F)cc4)n2)OC[C@]3(C)CNCC2CC2)C(F)(F)F)n1` [Example 34], the EC50 was over 500 nM.

As to `C[C@]1(C(N)=O)COc2c1cc([C@@](O)(CNC(=O)c1cc(O)c3ncccc3c1)C(F)(F)F)nc2-c1ccc(F)cc1` [Example 363], the EC50 was under 500 nM.

Usually EC50 stands for the concentration at which the effect is half-maximal.
